From US5834461A, “Tricyclic benzazepine vasopressin antagonists” (American Cyanamid Company, priority 1997, dated 1998)

Columns and labels:
[1] = molecular target: vasopressin V1 receptor (rat liver plasma membranes) (Rattus norvegicus, UniProt P30560); assay: Binding Assay to Rat Hepatic V1 Receptors; settings: rat hepatic V1
Protocol: Rat liver plasma membranes expressing the vasopressin V1 receptor subtypes are isolated by sucrose density gradient according to the method described by Lesko et al., (1973). These membranes are quickly suspended in 50.0 mM Tris.HCl buffer, pH 7.4, containing 0.2% bovine serum albumin (BSA) and 0.1 mM phenylmethylsulfonylfluoride (PMSF) and kept frozen at -70° C. until used in subsequent binding experiments. For binding experiments, the following is added to the wells of a ninety-six well format microtiter plate: 100 μl of 100.0 mM Tris.HCl buffer containing 10.0 mM MgCl2, 0.2% heat inactivated BSA and a mixture of protease inhibitors: leupeptin, 1.0 mg %; aprotinin, 1.0 mg %; 1,10-phenanthroline,2.0 mg %; trypsin inhibitor, 10.0 mg % and 0.1 mM PMSF, 20.0 μl of [phenylalanyl-3,4,5,-^3 H] vasopressin (S.A. 45.1 Ci/mmole) at 0.8 nM, and the reaction initiated by the addition of 80 μl of tissue membranes containing 20 μg of tissue protein. The plates are kept undisturbed on the bench top at room temperature for 120 min. to reach equilibrium. Non-specific samples are assayed in the presence of 0.1 μM of the unlabeled antagonist phenylalanylvasopressin, added in 20.0 μl volume.
For test compounds, these are solubilized in 50% dimethylsulfoxide (DMSO) and added in 20.0 μl volume to a final incubation volume of 200 μl. Upon completion of binding, the content of each well is filtered off, using a Brandel® cell Harvester (Gaithersburg, Md.). The radioactivity trapped on the filter disk by the ligand-receptor complex is assessed by liquid scintillation counting in a Packard LS Counter, with an efficiency of 65% for tritium.

[2] = molecular target: T1, rat kidney medullary V2 receptors (Rattus norvegicus, UniProt Q00788); assay: Binding Assay to Rat Kidney Medullary V2 Receptors; settings: rat kidney medullary V2
T1 construct: Medullary tissues from rat kidneys are dissected out; from tissue; host or cells: rat kidney medulla membranes
T1 sequence (Q00788 whole entry): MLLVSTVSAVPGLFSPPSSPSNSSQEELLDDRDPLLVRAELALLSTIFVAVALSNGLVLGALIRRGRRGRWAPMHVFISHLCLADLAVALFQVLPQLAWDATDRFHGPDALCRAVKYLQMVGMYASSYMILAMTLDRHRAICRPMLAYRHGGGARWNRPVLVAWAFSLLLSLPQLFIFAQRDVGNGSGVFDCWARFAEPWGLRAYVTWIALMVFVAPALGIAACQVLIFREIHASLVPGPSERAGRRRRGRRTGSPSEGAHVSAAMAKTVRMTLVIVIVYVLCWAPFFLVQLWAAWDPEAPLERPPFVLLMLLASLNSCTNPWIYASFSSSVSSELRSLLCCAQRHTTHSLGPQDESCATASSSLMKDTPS
Protocol: Medullary tissues from rat kidneys are dissected out, cut into small pieces and soaked in a […] sodium chloride solution containing 1.0 mM EDTA with many changes of the liquid phase, until the solution is clear of blood. The tissue is homogenized in a 0.25M sucrose solution containing 1.0 mM EDTA and 0.1 mM PMSF using a Potter-Elvehjem homogenizer with a teflon pestle. The homogenate is filtered through several layers (4 layers) of cheese cloth. The filtrate is rehomogenized using a dounce homogenizer, with a tight fitting pestle. The final homogenate is centrifuged at 1500×g for 15 min. The nuclear pellet is discarded and the supernatant fluid recentrifuged at 40,000×g for 30 min. The resulting pellet formed contains a dark inner part with the exterior, slightly pink. The pink outer part is suspended in a small amount of 50.0 mM Tris.HCl buffer, pH 7.4. The protein content is determined by the Lowry's method (Lowry et al., J. Biol. Chem., 1953). The membrane suspension is stored at -70° C., in 50.0 mM Tris.HCl, containing 0.2% inactivated BSA and 0.1 mM PMSF in aliquots of 1.0 ml containing 10.0 mg protein per ml of suspension until use in subsequent binding experiments.
For binding experiments, the following is added in μl volume to wells of a 96 well format of a microtiter plate: 100.0 μl of 100.0 mM Tris.HCl buffer containing 0.2% heat inactivated BSA, 10.0 mM MgCl2 and a mixture of protease inhibitors: leupeptin, 1.0 mg %; aprotinin, 1.0 mg %; 1,10-phenanthroline, 2.0 mg %; trypsin inhibitor, 10.0 mg % and 0.1 mM PMSF, 20.0 μl of [^3 H] Arginine^8, vasopressin (S.A. 75.0 Ci/mmole) at 0.8 nM and the reaction initiated by the addition of 80.0 μl of tissue membranes (200.0 μg tissue protein). The plates are left undisturbed on the bench top for 120 min to reach equilibrium. Non-specific binding is assessed in the presence of 1.0 μM of unlabeled ligand, added in 20 μl volume. For test compounds, these are solubilized in 50% dimethylsulfoxide (DMSO) and added in 20.0 μl volume to a final incubation volume of 200 μl. Upon completion of binding, the content of each well is filtered off, using a Brandel® cell Harvester (Gaithersburg, Md.). The radioactivity trapped on the filter disk by the ligand-receptor complex is assessed by liquid scintillation counting in a Packard LS Counter, with an efficiency of 65% for tritium.

vasopressin V2 = assay: Vasopressin V2 Antagonist Activity in Conscious Hydrated Rats (diuretic effect); type: in vivo, normal Sprague-Dawley rats; settings: AVP 0.4 μg/kg i.p.
Protocol: Conscious hydrated rats are treated with compounds under study from 0.1 to 100 mg/kg orally or vehicle. Two to four rats are used for each compound. One hour later, arginine vasopressin (AVP, antidiuretic hormore, ADH) dissolved in peanut oil is administered at 0.4 μg/kg intraperitoneally. Two rats in each test would not receive arginine vasopressin but only the vehicle (peanut oil) to serve as water-loading control. Twenty minutes later each rat is given 30 mL/kg of deionized water orally by gavage and is placed individually in a metabolic cage equipped with a funnel and a graduated glass cylinder to collect urine for four hours. Urine volume is measured and osmolality analyzed by use of a Fiske One-Ten osmometer (Fiske Assoc., Norwood, Mass., USA). Urinary sodium, potassium, and chloride are analyzed by use of ion-specific electrodes in a Beckman E3 (Electrolyte 3) Analyzer. In the following results, […] and decreased osmolality relative to AVP-control indicates activity.

vasopressin V1 = assay: Vasopressin V1 Antagonist Activity in Conscious Rats (vasopressin vasopressor response); type: in vivo, rat (spontaneously hypertensive rats); design: Average Change: unit not given here
Protocol: Conscious rats are restrained in a supine position with elastic tape. The area at the base of the tail is locally anesthetized by subcutaneous infiltration with 2% procaine (0.2 ml). Using aseptic technique the ventral caudal tail artery is isolated and a cannula made of PE 10 and 20 (heat-fused) tubing is passed into the lower abdominal aorta. The cannula is secured, heparinized (1000 i.u./cc), sealed and the wound closed with one or two stitches of Dexon 4-0. The caudal vein is also cannulated in the same manner for intravenous drug administration. The duration of the surgery is approximately 5 minutes. Additional local anesthesia (2% procaine or lidocaine) is provided as needed.
The animals are placed in plastic restraining cages in an upright position. The cannula is attached to a Statham P23Db pressure transducer and pulsatile blood pressure is recorded. […] The vasopressin injections are repeated 30, 60, 90, 120, 180, 240 and 300 min. later. Percentage of antagonism by the compound is calculated using the pre-drug vasopressin vasopressor response as 100%.

[3] = 10 mg/kg i.v., VAS 0.01 i.u./kg, 30 min
[4] = 10 mg/kg i.v., VAS 0.02 i.u./kg, 30 min
[5] = 20 mg/kg i.v., VAS 0.01 i.u./kg, 60 min
[6] = 20 mg/kg i.v., VAS 0.01 i.u./kg, 90 min
[7] = 20 mg/kg i.v., VAS 0.01 i.u./kg, 120 min
[8] = 20 mg/kg i.v., VAS 0.01 i.u./kg, 180 min
[9] = 20 mg/kg i.v., VAS 0.01 i.u./kg, 240 min
[10] = 20 mg/kg i.v., VAS 0.01 i.u./kg, 300 min
[11] = 20 mg/kg i.v., VAS 0.02 i.u./kg, 60 min
[12] = 20 mg/kg i.v., VAS 0.02 i.u./kg, 90 min
[13] = 20 mg/kg i.v., VAS 0.02 i.u./kg, 120 min
[14] = 20 mg/kg i.v., VAS 0.02 i.u./kg, 180 min
[15] = 20 mg/kg i.v., VAS 0.02 i.u./kg, 240 min
[16] = 20 mg/kg i.v., VAS 0.02 i.u./kg, 300 min
[17] = 10 mg/kg i.v., VAS 0.01 i.u./kg, 60 min
[18] = 10 mg/kg i.v., VAS 0.01 i.u./kg, 90 min
[19] = 10 mg/kg i.v., VAS 0.01 i.u./kg, 120 min
[20] = 10 mg/kg i.v., VAS 0.01 i.u./kg, 180 min
[21] = 10 mg/kg i.v., VAS 0.01 i.u./kg, 240 min
[22] = 10 mg/kg i.v., VAS 0.01 i.u./kg, 300 min
[23] = 10 mg/kg i.v., VAS 0.02 i.u./kg, 60 min
[24] = 10 mg/kg i.v., VAS 0.02 i.u./kg, 90 min
[25] = 10 mg/kg i.v., VAS 0.02 i.u./kg, 120 min
[26] = 10 mg/kg i.v., VAS 0.02 i.u./kg, 180 min
[27] = 10 mg/kg i.v., VAS 0.02 i.u./kg, 240 min
[28] = 10 mg/kg i.v., VAS 0.02 i.u./kg, 300 min

vasopressin V1 receptor (rat liver plasma membranes), sequence (P30560 whole entry): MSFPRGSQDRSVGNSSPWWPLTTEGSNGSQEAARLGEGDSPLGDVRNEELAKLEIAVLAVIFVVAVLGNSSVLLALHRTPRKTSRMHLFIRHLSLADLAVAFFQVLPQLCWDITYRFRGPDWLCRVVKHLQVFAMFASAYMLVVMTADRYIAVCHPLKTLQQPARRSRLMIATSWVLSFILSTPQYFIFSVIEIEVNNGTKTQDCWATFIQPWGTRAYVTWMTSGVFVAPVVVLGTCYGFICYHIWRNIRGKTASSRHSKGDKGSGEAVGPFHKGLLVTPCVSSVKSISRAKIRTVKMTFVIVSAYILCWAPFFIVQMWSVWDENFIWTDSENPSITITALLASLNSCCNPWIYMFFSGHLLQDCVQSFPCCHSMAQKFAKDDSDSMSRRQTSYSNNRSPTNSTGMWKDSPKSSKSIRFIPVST

O=C(Nc1ccc(C(=O)N2Cc3ccccc3Cc3ccccc32)cc1)c1ccc(Cl)cc1Cl [Example 10, N-[4-[(6,11-Dihydro-5H-dibenz[b,e]azepin-5-yl)carbonyl]phenyl]2,4-dichlorobenzamide]
IC50 [1]: 170 nM
IC50 [2]: 64 nM
Osmolality (vasopressin V2; 10 mg/kg orally): 1023 mOsm/kg
Urine Volume (vasopressin V2; 10 mg/kg orally): 7.1 ml/4 hrs.
Average Change (vasopressin V1; [3]): 37.5
Inhibition (vasopressin V1; [3]): -25%
Average Change (vasopressin V1; [4]): 64.5
Inhibition (vasopressin V1; [4]): -26%
Average Change (vasopressin V1; [5]): 14.5
Inhibition (vasopressin V1; [5]): 52%
Average Change (vasopressin V1; [6]): 16
Inhibition (vasopressin V1; [6]): 47%
Average Change (vasopressin V1; [7]): 13.5
Inhibition (vasopressin V1; [7]): 55%
Average Change (vasopressin V1; [8]): 25.5
Inhibition (vasopressin V1; [8]): 15%
Average Change (vasopressin V1; [9]): 22.5
Inhibition (vasopressin V1; [9]): 25%
Average Change (vasopressin V1; [10]): 24.5
Inhibition (vasopressin V1; [10]): 18%
Average Change (vasopressin V1; [11]): 22.5
Inhibition (vasopressin V1; [11]): 56%
Average Change (vasopressin V1; [12]): 23
Inhibition (vasopressin V1; [12]): 55%
Average Change (vasopressin V1; [13]): 22
Inhibition (vasopressin V1; [13]): 57%
Average Change (vasopressin V1; [14]): 29.5
Inhibition (vasopressin V1; [14]): 42%
Average Change (vasopressin V1; [15]): 34.5
Inhibition (vasopressin V1; [15]): 32%
Average Change (vasopressin V1; [16]): 34
Inhibition (vasopressin V1; [16]): 33%

O=C(Nc1ccc(C(=O)N2Cc3ccccc3Cc3ccccc32)cc1)c1ccccc1Cl [Example 14, N-[4-[(6,11-Dihydro-5H-dibenz[b,e]azepin-5-yl)-carbonyl]phenyl]-2-chlorobenzamide]
IC50 [1]: 57 nM
IC50 [2]: 66 nM
Osmolality (vasopressin V2; 30 mg/kg orally): 739 mOsm/kg
Urine Volume (vasopressin V2; 30 mg/kg orally): 13.1 ml/4 hrs.
Average Change (vasopressin V1; [3]): 11
Inhibition (vasopressin V1; [3]): 51%
Average Change (vasopressin V1; [17]): 12
Inhibition (vasopressin V1; [17]): 47%
Average Change (vasopressin V1; [18]): 13.5
Inhibition (vasopressin V1; [18]): 40%
Average Change (vasopressin V1; [19]): 16
Inhibition (vasopressin V1; [19]): 29%
Average Change (vasopressin V1; [20]): 21.5
Inhibition (vasopressin V1; [20]): 4%
Average Change (vasopressin V1; [21]): 26.5
Inhibition (vasopressin V1; [21]): -18%
Average Change (vasopressin V1; [22]): 24.5
Inhibition (vasopressin V1; [22]): -9%
Average Change (vasopressin V1; [4]): 23
Inhibition (vasopressin V1; [4]): 56%
Average Change (vasopressin V1; [23]): 22
Inhibition (vasopressin V1; [23]): 58%
Average Change (vasopressin V1; [24]): 29.5
Inhibition (vasopressin V1; [24]): 43%
Average Change (vasopressin V1; [25]): 23.5
Inhibition (vasopressin V1; [25]): 55%
Average Change (vasopressin V1; [26]): 30.5
Inhibition (vasopressin V1; [26]): 41%
Average Change (vasopressin V1; [27]): 32
Inhibition (vasopressin V1; [27]): 38%
Average Change (vasopressin V1; [28]): 33
Inhibition (vasopressin V1; [28]): 37%
